Source: US20230151434A1, “REAWAKENING OF DORMANT TUMOR CELLS BY MODIFIED LIPIDS DERIVED FROM STRESS ACTIVATED NEUTROPHILS” (The Wistar Institute of Anatomy and Biology, priority 2020, published 2023)

Legend:
[1] = test system: PMN; assay: S100A8/A9 release by PMN measured by ELISA; type: cell-based, mouse; details: PMN treated with NE with or without ICI-118,551
Procedure: PMN or PMN-MDSC were isolated from spleen of tumor-free mice or LLC tumor-bearing mice, respectively. A total of 5×10^5 LLC cells were injected into the right flank of mice, and spleens were harvested when tumors reached 200 mm^2. Spleens were mechanically dissociated. Red blood cells were lysed with ACK buffer cells. Splenocytes were stained with mouse biotin-conjugated Ly6G antibody (Miltenyi Biotec) followed by biotin microbeads. Ly6G+ cells were purified by magnetic separation with MACS column for magnetic cell isolation, according to the manufacturer's instructions (Miltenyi Biotec).
One hundred microliters of mouse peripheral blood was collected from facial vein. NE was measured by a mouse NE ELISA Kit (Novus Biologicals). S100A8/A9 was measured by Mouse S100A8/S100A9 Heterodimer DuoSet ELISA (R&D Systems). S100A8/A9 concentrations in human serum samples were determined by using a double-sandwich ELISA system as previously described (64), which is different from commercial ELISA kits. Human NE was measured using an ELISA kit (Abnova).

[2] = test system: KPr^p53A cells; assay: In vivo stress induction, NOD/SCID mice injected with KPr^p53A cells and PMN; parameters: species or system mouse
From the text: A total of 2.5×10^4 KPr^p53A cells were intravenously injected to NOD/SCID mice. Beginning 3 weeks after injection, mice were imaged weekly. Luciferin (PerkinElmer) was intraperitoneally injected in mice before imaging according to the manufacturer's instruction. Mice were imaged with IVIS Spectrum In Vivo Imaging System (IVIS, PerkinElmer) to detect luminescent signal coming from growing cancer cells. Mice were put under anesthesia in the induction chamber with isoflurane vaporizer set to 2.5%, at a flow rate of ˜1.5 liters/min. Mice were then transferred in the IVIS imaging stage nose cone inside the IVIS manifold (IVIS manifold nose cones flow set to ˜0.25 LPM). Animals were monitored by video during imaging. Once the images of luciferase/luciferin activity were acquired, the anesthesia was turned off and the animals were returned to their cages. […] Analysis and quantification were performed with IVIS imaging system Living Image Software 4.7.4 (PerkinElmer). […] When signal was detected, mice were sacrificed, and bioluminescent images of the harvested lung were taken. […] If no bioluminescence was detected in lungs after 80 days from last PMN injection, experiments were terminated, and lung tissue were collected. […] Bioluminescence was not detected in any LL2^CisA-injected mice at 3 weeks after injection. Mice were treated with PMN or PMN-MDSC and analyzed as described above. […]

[3] = test system: PMN and PMN-MDSC; assay: NET detection; type: cell-based, mouse
Procedure: PMN were cultured for 8 hours in 24-well flat-bottom plates in RPMI 1640+10% FBS. PMN were then fixed with 4% paraformaldehyde (Electron Microscopy Sciences) followed by staining with SYTOX Green Nucleic Acid Stain (SYTOX) at a final concentration of 250 nM. A Nikon TE300 inverted microscope equipped with a motorized XY stage was used to image NETs by acquiring 25 random locations per well. The z-stacks per location were then combined into an extended depth focused image. The total NET area was calculated by segmenting each image using a defined threshold pixel intensity setting. The spot detection tool in NIS-Elements Advanced Research (Nikon) was used to count the number of cells per field. The sum of the total NET area in the 25 random fields of view was divided by the total number of cells in the 25 fields of view to obtain NET area (in […]) per cell.

[4] = test system: PMN; assay: ROS production in PMN (DCFDA, flow cytometry); type: cell-based, mouse
From the text: FIG. 14A-FIG. 14B show the effect of S100A9 on PMN activity. (FIG. 14A) DCFDA measured by flow cytometry in PMN treated with S100A8/A9 or NE. Each dot represents an individual mouse. Mean±SEM are shown. (FIG. 14B) qRT-PCR of Ptges, Ptgs2, and Arg1 expression in mouse PMN treated with S100A8/A9 or NE. Each dot represents an individual mouse. Mean±SEM are shown.

[5] = test system: PMN; assay: qRT-PCR of Ptges, Ptgs2 and Arg1 in PMN; type: cell-based, mouse
Procedure: RNA from tumor cells or PMN was extracted from snap-frozen pellets with Quick-RNA Microprep or Quick-RNA Miniprep (Zymo Research) per the manufacturer's instructions. cDNA was prepared with a High-Capacity cDNA Reverse Transcription Kit with RNase Inhibitor (Thermo Fisher Scientific) per the manufacturer's instructions. qRT-PCR was performed in an ABI QuantStudio 5 Rm 422 machine (Applied Biosystems).

| Molecule | NE-mediated secretion of S100A8/A9 by PMN [1] | growth of KPr^p53A cells in lung and liver of stressed mice injected with PMN ([2]; 1 mg/kg i.p. daily during stress induction) | survival of stressed tumor-bearing mice ([2]; humane end-points, n=10 per group) | NET formation by PMN and PMN-MDSC [3] | ROS production in PMN [4] | expression of Arg1, Ptgs2, or Ptges in PMN [5] |
| --- | --- | --- | --- | --- | --- | --- |
| Cc1ccc(OCC(O)C(C)NC(C)C)c2c1CCC2 (stereo not drawn) [ICI-118,551] | abrogated the NE-mediated secretion of S100A8/A9 by PMN | abrogated this effect | markedly improved survival |  |  |  |
| S100A8/A9: recombinant S100A8/A9, heterocomplex of two S100 calcium binding proteins (calprotectin) (protein, UniProt P27005 2-89; P31725 2-113, looked up) Protein S100-A8: PSELEKALSNLIDVYHNYSNIQGNHHALYKNDFKKMVTTECPQFVQNINIENLFRELDINSDNAINFEEFLAMVIKVGVASHKDSHKE Protein S100-A9: ANKAPSQMERSITTIIDTFHQYSRKEGHPDTLSKKEFRQMVEAQLATFMKKEKRNEALINDIMEDLDTNQDNQLSFEECMMLMAKLIFACHEKLHENNPRGHGHSHGKGCGK |  |  |  | did not cause substantial up-regulation of NETs | no effect on ROS production | little or no effect on expression of Arg1, Ptgs2, or Ptges |
